Assay results reported in patent publication US20250002473A1, “QUINOXALINE DERIVED SULFONAMIDES WITH EGFR DEGRADATION ACTIVITIES AND THEIR USES THEREOF” (Accutar Biotechnology Inc., priority 2023, published 2025).
Read-outs that look alike come from different tables or passages of the source.

Experiments:
Assay type in all cases: cell-based
[1] = test system: A431; assay: Cell growth inhibition assay (CellTiter-Glo), A431; settings: Homo sapiens, A-431, 72 h, A431 cells, three days, read-out: A431 GI50
Outline: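 Cells were plated in 96-well plates (Corning 3610) at 90 μL of culture medium per well and incubated overnight at 37° C. The next day, a 1,000× DMSO compound stock was diluted 1:100 in cell culture medium, and 10 μL was added per well. After shaking for 10 min, luminescence was read on an Envision (PerkinElmer) reader.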

[2] = test system: NCI-H2073; assay: Cell growth inhibition assay (CellTiter-Glo), NCI-H2073; settings: 72 h; Table 8; NCI-H2073 cells, three days
Method: Cells were seeded in a 96-well plate (Corning 3610) with 90 μL of culture medium per well, and plates were incubated at 37° C. overnight. A 1,000× DMSO stock solution of the desired compound was prepared the following day. A compound dilution plate was prepared by diluting the stock solution 1:100 in the corresponding cell culture medium, 10 μL of the diluted compound solution was added to each 96-well plate well containing the seeded cells. […] The content of the wells was mixed by shaking continuously for 10 min, and luminescence was measured using Envision (PerkinElmer). The data were analyzed with GraphPad Prism 9 (see FIG. 50).
(§1) Table 6, Table 7, and Table 8 list the cell growth inhibition results, where Gls0 represents the compound concentration to cause 50% cell growth inhibition in comparison with DMSO.

[3] = test system: HCC827; assay: Cell growth inhibition assay (CellTiter-Glo), HCC827; settings: Homo sapiens, 72 h, Table 8, HCC827 cells, three days
Method: (§2) HCC827_LTC and HCC827_DTC cell lines were generated by first transducing HCC827 cells (ATCC) with lentiviral particles expressing codon-optimized human EGFR L858R/T790M/C797S (LTC) mutant or Del19/T790M/C797S (DTC) mutant, and then selecting under 5 μg/ml puromycin treatment for a week. The endogenous EGFR alleles were subsequently abolished using the Alt-R™ CRISPR-Cas9 technology (Integrated DNA Technologies). Single clones of HCC827_LTC and HCC827_DTC were selected and validated for endogenous EGFR knockout using Sanger sequencing.
(§3) Cells were seeded in a 96-well plate (Corning 3610) with 90 μL of culture medium per well, and plates were incubated at 37° C. overnight. A 1,000× DMSO stock solution of the desired compound was prepared the following day. A compound dilution plate was prepared by diluting the stock solution 1:100 in the corresponding cell culture medium, 10 μL of the diluted compound solution was added to each 96-well plate well containing the seeded cells. Then, the cells were cultured at 37° C. for three days following compound treatment, 100 μL of CellTiter-Glo reagents (Promega G7573) was added to each well of the 96-well plate. The content of the wells was mixed by shaking continuously for 10 min, and luminescence was measured using Envision (PerkinElmer). The data were analyzed with GraphPad Prism 9 (see FIG. 50).
as §1

[4] = test system: HCC827_LTC; assay: Cell growth inhibition assay (CellTiter-Glo), HCC827_LTC; settings: 72 h; Table 8; HCC827 expressing human EGFR L858R/T790M/C797S, endogenous EGFR knockout, three days
Method: as §2, §3, §1

[5] = test system: HCC827_DTC; assay: Cell growth inhibition assay (CellTiter-Glo), HCC827_DTC; settings: 72 h; Table 8; HCC827 expressing human EGFR Del19/T790M/C797S, endogenous EGFR knockout, three days
Method: as §2, §3, §1

[6] = molecular target: T1, A431 (EGFR_WT) (Homo sapiens, UniProt P00533); assay: EGFR degradation assay (western blot), A431 cells; settings: compounds 24 h, western blot, read-out: A431 DC50
T1 construct: endogenous in cells; host or cells: A431, NCI-H2073, NCI-H292
T1 sequence (P00533 25-1210): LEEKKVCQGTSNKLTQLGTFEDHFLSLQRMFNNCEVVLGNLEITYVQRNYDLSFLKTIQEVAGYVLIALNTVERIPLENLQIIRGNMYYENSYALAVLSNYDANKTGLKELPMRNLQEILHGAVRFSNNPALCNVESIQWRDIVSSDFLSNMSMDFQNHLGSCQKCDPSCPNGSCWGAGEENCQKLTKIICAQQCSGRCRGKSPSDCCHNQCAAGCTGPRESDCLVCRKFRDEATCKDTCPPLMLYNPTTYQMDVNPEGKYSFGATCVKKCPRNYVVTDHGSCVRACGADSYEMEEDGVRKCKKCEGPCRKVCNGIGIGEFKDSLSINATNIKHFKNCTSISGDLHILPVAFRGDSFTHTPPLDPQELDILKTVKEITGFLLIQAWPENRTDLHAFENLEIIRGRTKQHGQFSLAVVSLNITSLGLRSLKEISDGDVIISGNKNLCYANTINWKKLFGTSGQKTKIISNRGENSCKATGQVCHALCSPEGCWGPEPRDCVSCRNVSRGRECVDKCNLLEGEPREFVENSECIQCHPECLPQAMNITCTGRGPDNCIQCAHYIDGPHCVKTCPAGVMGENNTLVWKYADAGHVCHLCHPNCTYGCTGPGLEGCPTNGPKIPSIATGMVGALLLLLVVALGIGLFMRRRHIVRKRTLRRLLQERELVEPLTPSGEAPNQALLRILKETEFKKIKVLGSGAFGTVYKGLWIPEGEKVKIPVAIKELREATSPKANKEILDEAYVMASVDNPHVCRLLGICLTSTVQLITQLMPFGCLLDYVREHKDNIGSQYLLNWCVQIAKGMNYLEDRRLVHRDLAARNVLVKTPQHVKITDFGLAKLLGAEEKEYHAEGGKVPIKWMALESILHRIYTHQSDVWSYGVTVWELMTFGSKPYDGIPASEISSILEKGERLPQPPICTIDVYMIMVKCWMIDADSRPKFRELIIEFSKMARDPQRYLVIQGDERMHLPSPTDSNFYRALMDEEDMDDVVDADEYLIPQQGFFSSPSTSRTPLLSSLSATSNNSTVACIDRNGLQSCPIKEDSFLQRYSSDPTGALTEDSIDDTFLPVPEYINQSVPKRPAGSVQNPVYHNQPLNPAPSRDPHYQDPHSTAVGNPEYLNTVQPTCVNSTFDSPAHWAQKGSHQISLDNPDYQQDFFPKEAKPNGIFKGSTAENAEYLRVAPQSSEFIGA
Method: A431 (EGFR_WT), NCl-H2073 (EGFR_WT), NCl-H292 (EGFR_WT), BaF3_YVAM (Her2_A775insYVAM), BaF3_SVD (EGFR_D770insSVD), BaF3_ASV (EGFR_A776inASV), or BaF3_DTC (EGFR_Exon19del/T790M/C797S) cells were seeded in a 24-well plate at a density of 4×10^5 cells per well for EGFR WT cells and 8× cells per well for EGFR or Her2 mutant cells, and the plates were incubated overnight. The cells were treated with the desired compounds for 24 h. The culture medium was removed, and 100 μL of RIPA buffer (Beyotime, P0013B) containing 1% Protease Inhibitor Cocktail (Bimake, B14001), 1% Phosphatase Inhibitor Cocktail 2 (Sigma, P5726), and 1% Phosphatase Inhibitor Cocktail 3 (Sigma, P0044) were added to lyse the cells. Then, the cell lysates were transferred to 1.5 mL microcentrifuge tubes and centrifuged at 12,000 rpm and 4° C. for 30 min. The supernatants were transferred into new tubes, and the protein concentration was determined using the BCA protein quantification method. All samples were diluted to the same concentration using RIPA buffer, loading buffer was added, samples were denatured, and 15 μg of protein per lane was loaded onto a SurePAGE 4-20% Bis-Tris gel. Samples were separated via electrophoresis in MOPS running buffer at 180 V for 100 min. Then, proteins were transferred onto PVDF membranes using the MiniBlot™ Electrophoretic Transfer Cell Device (Beyotime, E6050). The membrane was blocked using block buffer (LI-COR 927-60001) to prevent non-specific binding. The membrane was incubated with primary antibodies (1:500 dilution, EGFR-CST4405, 1:2000 dilution, Tubulin-ABclonal #AC021) at 4° C. overnight. The membrane was washed three times with 1× TBST buffer for 15 min each. The membrane was incubated with secondary antibodies IRDye 680RD Goat anti-Rabbit IgG Secondary Antibody (1:2000 dilution, LI-COR 926-68071) and IRDye 800CW Goat anti-Mouse IgG Secondary Antibody (1:2000 dilution, LI-COR 926-32210). Finally, the membrane was washed again with 1× TBST buffer 3 times. Fluorescence was detected using the Odyssey CLx Imaging System, and the data were analyzed with Empiria Studio Software and GraphPad Prism 9. Table 4 and Table 5 list the degradation results, where the degradation potency is represented by DC50, the concentration of compounds to cause the degradation of 50% of the corresponding proteins. FIGS. 45-49 show western blots illustrating the EGFR degradative activity of exemplary Compound of the present disclosure and a comparator Compound A in different cell lines 24 h after administration. The Compound referred herein as Compound A is disclosed in WO 2022/171123 A1 (see, compound 133, page 46; published Aug. 18, 2022). WO 2022/171123 A1 discloses phosphine oxide derived molecules with EGFR degradation activity.

[7] = test system: BaF3_DTC (EGFR_Exon19del/T790M/C797S); assay: EGFR degradation assay (western blot), BaF3_DTC cells; settings: BaF3_DTC cells (EGFR_Exon19del/T790M/C797S), compounds 24 h, western blot; read-out: BaF3_DTC DC50
Outline: (§4)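 Cells seeded overnight, then exposed to compounds for 24 h; lysates run on western blot, EGFR probed with tubulin loading control and fluorescent secondary detection. DC50 = concentration giving 50% EGFR degradation.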

[8] = molecular target: T2, BaF3_ASV (EGFR_A776inASV) (Homo sapiens, UniProt P00533, DUP767-769); assay: EGFR degradation assay (western blot), BaF3_ASV cells; settings: BaF3_ASV cells, compounds 24 h, western blot; read-out: BaF3_ASV DC50
T2 construct: expressed in transfected cells; host or cells: Ba/F3 (engineered)
T2 sequence (P00533 with tags, fused parts or gaps DUP767-769): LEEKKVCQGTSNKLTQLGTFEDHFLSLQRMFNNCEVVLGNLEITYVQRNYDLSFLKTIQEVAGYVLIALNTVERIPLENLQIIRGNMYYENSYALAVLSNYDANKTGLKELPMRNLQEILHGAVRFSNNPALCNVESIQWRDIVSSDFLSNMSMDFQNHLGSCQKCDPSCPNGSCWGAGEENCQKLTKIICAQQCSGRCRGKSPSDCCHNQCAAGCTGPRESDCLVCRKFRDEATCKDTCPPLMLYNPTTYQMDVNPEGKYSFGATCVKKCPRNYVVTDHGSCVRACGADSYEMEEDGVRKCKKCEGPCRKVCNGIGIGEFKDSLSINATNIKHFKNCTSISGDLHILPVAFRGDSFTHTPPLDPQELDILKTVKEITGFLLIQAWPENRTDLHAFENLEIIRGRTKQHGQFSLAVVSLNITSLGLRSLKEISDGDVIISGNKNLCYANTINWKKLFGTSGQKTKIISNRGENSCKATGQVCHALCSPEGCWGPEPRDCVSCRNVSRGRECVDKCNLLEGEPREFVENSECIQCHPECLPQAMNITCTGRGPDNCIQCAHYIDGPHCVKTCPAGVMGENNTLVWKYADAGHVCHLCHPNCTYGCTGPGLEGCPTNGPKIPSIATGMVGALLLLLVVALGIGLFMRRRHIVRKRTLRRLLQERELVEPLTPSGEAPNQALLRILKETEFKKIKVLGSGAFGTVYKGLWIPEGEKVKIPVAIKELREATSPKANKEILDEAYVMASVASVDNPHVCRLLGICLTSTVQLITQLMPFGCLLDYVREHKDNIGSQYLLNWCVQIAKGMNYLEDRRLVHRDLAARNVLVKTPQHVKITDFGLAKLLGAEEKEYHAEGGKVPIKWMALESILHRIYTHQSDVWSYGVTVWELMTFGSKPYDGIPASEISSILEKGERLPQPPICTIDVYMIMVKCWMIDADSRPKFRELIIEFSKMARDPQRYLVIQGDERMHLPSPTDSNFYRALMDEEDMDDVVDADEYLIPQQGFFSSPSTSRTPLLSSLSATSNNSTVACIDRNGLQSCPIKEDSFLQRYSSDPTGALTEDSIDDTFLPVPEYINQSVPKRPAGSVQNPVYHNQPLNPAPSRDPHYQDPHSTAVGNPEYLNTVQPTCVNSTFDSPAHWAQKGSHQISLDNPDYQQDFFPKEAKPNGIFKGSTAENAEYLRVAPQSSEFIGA
Outline: as §4

[9] = test system: BaF3_DTC; assay: Cell growth inhibition assay (CellTiter-Glo), BaF3_DTC; settings: 72 h; Table 6; BaF3_DTC cells, three days, CellTiter-Glo; read-out: BaF3_DTC GI50
[10] = test system: BaF3_ASV; assay: Cell growth inhibition assay (CellTiter-Glo), BaF3_ASV; settings: 72 h
[11] = Table 6, BaF3_ASV cells, three days, CellTiter-Glo, read-out: BaF3_ASV GI50

SMILES	GI50 ([1]; Table 8)	GI50 [2]	GI50 [3]	GI50 [4]	GI50 [5]	DC50 [6]	DC50 [7]	DC50 [8]	GI50 ([1]; Table 6, CellTiter-Glo)	GI50 [9]	GI50 [10, 11]	GI50 ([10]; read-out: BaF3_ASV GI50 (nM))
COc1cc(N2CCC(N3CC4(CN(C(=O)CC5(O)CCN(c6ccc(NC7CCC(=O)NC7=O)cc6F)CC5)C4)C3)CC2)c(-c2cnn(C)c2)cc1Nc1ncc(Br)c(Nc2ccc3nccnc3c2NS(C)(=O)=O)n1 (centres unmarked) [Compound 81, N-(6-((5-bromo-2-((4-(4-(6-(2-(1-(4-((2,6-dioxopiperidin-3-yl)amino)-2-fluorophenyl)-4-hydroxypiperidin-4-yl)acetyl)-2,6-diazaspiro[3.3]heptan-2-yl)piperidin-1-yl)-2-methoxy-5-(1-methyl-1H-pyrazol-4-yl)phenyl)amino)pyrimidin-4-yl)amino)quinoxalin-5-yl)methanesulfonamide]	0.746 µM	> 3 µM	0.00241 µM	0.00203 µM	0.00421 µM							
CCc1cc(Nc2ncc(Br)c(Nc3ccc4nccnc4c3NS(C)(=O)=O)n2)c(OC)cc1N1CCC(N2CCN(C(=O)C3CCN(c4ccc5c(c4)CN(C4CCC(=O)NC4=O)C5=O)CC3)CC2)CC1 (centres unmarked) [Compound 10, N-(6-((5-bromo-2-((4-(4-(4-(1-(2-(2,6-dioxopiperidin-3-yl)-1-oxoisoindolin-5-yl)piperidine-4-carbonyl)piperazin-1-yl)piperidin-1-yl)-5-ethyl-2-methoxyphenyl)amino)pyrimidin-4-yl)amino)quinoxalin-5-yl)methanesulfonamide]						> 1 µM	0.00121 µM	0.02 µM	> 1 µM	0.0096 µM	72.7 nM	
CCc1cc(Nc2ncc(Br)c(Nc3ccc4nccnc4c3NS(C)(=O)=O)n2)c(OC)cc1N1CCC(N2CCN(CC3CCN(c4ccc5c(c4)C(=O)N(C4CCC(=O)NC4=O)C5=O)CC3)CC2)CC1 (centres unmarked) [Compound 6, N-(6-((5-bromo-2-((4-(4-(4-((1-(2-(2,6-dioxopiperidin-3-yl)-1,3-dioxoisoindolin-5-yl)piperidin-4-yl)methyl)piperazin-1-yl)piperidin-1-yl)-5-ethyl-2-methoxyphenyl)amino)pyrimidin-4-yl)amino)quinoxalin-5-yl)methanesulfonamide]						> 1 µM	0.00594 µM	0.289 µM	> 1 µM	0.0112 µM	282 nM	
CCc1cc(Nc2ncc(Br)c(Nc3ccc4nccnc4c3NS(C)(=O)=O)n2)c(OC)cc1N1CCC(N2CCN(C3CCN(c4ccc5c(c4)CN(C4CCC(=O)NC4=O)C5=O)CC3)CC2)CC1 (centres unmarked) [Compound 49, N-(6-((5-bromo-2-((4-(4-(4-(1-(2-(2,6-dioxopiperidin-3-yl)-1-oxoisoindolin-5-yl)piperidin-4-yl)piperazin-1-yl)piperidin-1-yl)-5-ethyl-2-methoxyphenyl)amino)pyrimidin-4-yl)amino)quinoxalin-5-yl)methanesulfonamide]						> 1 µM	0.00236 µM	0.0197 µM	≥ 1 µM	0.00443 µM	32.7 nM	
CCc1cc(Nc2ncc(Br)c(Nc3ccc4nccnc4c3NS(C)(=O)=O)n2)c(OC)cc1N1CCC(N2CCC(C(=O)N3CCN(c4ccc5c(c4)CN([C@H]4CCC(=O)NC4=O)C5=O)CC3)CC2)CC1 [Compound 41, (S)-N-(6-((5-bromo-2-((4-(4-(4-(2-(2,6-dioxopiperidin-3-yl)-1-oxoisoindolin-5-yl)piperazine-1-carbonyl)-[1,4′-bipiperidin]-1′-yl)-5-ethyl-2-methoxyphenyl)amino)pyrimidin-4-yl)amino)quinoxalin-5-yl)methanesulfonamide]						> 1 µM	> 0.1 µM	0.335 µM	> 1 µM	0.123 µM	52.7 nM	
CCc1cc(Nc2ncc(Br)c(Nc3ccc4nccnc4c3NS(C)(=O)=O)n2)c(OC)cc1N1CCC(N2CC3(CCN(c4ccc5c(c4)CN(C4CCC(=O)NC4=O)C5=O)CC3)C2)CC1 (centres unmarked) [Compound 57, N-(6-((5-bromo-2-((4-(4-(7-(2-(2,6-dioxopiperidin-3-yl)-1~oxoisoindolin-5-yl)-2,7-diazaspiro[3.5]nonan-2-yl)piperidin-1-yl)-5-ethyl-2-methoxyphenyl)amino)pyrimidin-4-yl)amino)quinoxalin-5-yl)methanesulfonamide]						> 1 µM	0.00473 µM	0.0445 µM	0.36 µM	0.00589 µM	51.5 nM	
CCc1cc(Nc2ncc(Br)c(Nc3ccc4nccnc4c3NS(C)(=O)=O)n2)c(OC)cc1N1CCC(N2CCN(CCc3cccc4c3oc(=O)n4C3CCC(=O)NC3=O)CC2)CC1 (centres unmarked) [Compound 77, N-(6-((5-bromo-2-((4-(4-(4-(2-(3-(2,6-dioxopiperidin-3-yl)-2-oxo-2,3-dihydrobenzo[d]oxazol-7-yl)ethyl)piperazin-1-yl)piperidin-1-yl)-5-ethyl-2-methoxyphenyl)amino)pyrimidin-4-yl)amino)quinoxalin-5-yl)methanesulfonamide]						> 1 µM	0.0027 µM	> 1 µM	> 3 µM	0.00539 µM		131 nM
